≈ marks a conversion by molar mass, not a printed value. Bounds are passed on as bounds.

The values that follow come from PubChem BioAssay AID1996.

For the series the following is noted: buffer; pH 7.4; 200.0 µM.
One may read the solubility (kinetic) as solubility judged after dilution from a stock solution rather than from solid. In turn, `COc1ccc(C)cc1NC(=O)NCCCCc1ccccc1` gave a solubility (kinetic) of 0.4 µg/mL (≈ 1.28 µM). `N#Cc1cc(S(=O)(=O)N2CCOCC2)ccc1N1CCOCC1` showed a solubility (kinetic) of more than 50.6 µg/mL. Next, `CCSc1nnc(NC(=O)C2CSC3(C)CCC(=O)N23)s1` (stereo not drawn): more than 51.7 µg/mL; `CC(C)N(Cc1nc(-c2ccc3c(c2)OCO3)no1)CC1CCC(=O)N1` (stereo not drawn): 37.3 µg/mL (≈ 104 µM). With `Cc1cccc(C)c1N1CCN(S(=O)(=O)c2ccccc2)CC1` the figure was less than 0.4 µg/mL; with `Cc1ccc(NC(=O)c2sc(C)nc2C)c(C)c1`, more than 39.1 µg/mL. With `O=C(O)[C@@H]1CCCN1C(=O)COc1ccc2c3c(c(=O)oc2c1)CCC3` the figure was more than 53.6 µg/mL; with `COc1ccccc1N1CCN(C(=O)c2cccc(S(=O)(=O)Nc3ccccc3F)c2)CC1.Cl`, more than 75.9 µg/mL. As to `CC(=O)c1ccc(NC(=S)N2CCN(CCO)CC2)cc1`, the solubility (kinetic) is more than 46.1 µg/mL. `CN(Cc1cccnc1)C(=O)CNC(=O)COc1ccccc1`: the kinetic solubility was more than 47 µg/mL. With `C/C(=N/OC(=O)c1cccc(C(F)(F)F)c1)c1cnccn1` the figure was 3.5 µg/mL (≈ 11.3 µM).

Compound `COc1ccc(Nc2nc(Cl)c(C=O)s2)cc1` showed a kinetic solubility of 11.1 µg/mL (≈ 41.3 µM). As for `Cc1c(C(=O)N2CCNCC2)oc2ccccc12.Cl`, the kinetic solubility is 40.9 µg/mL. With `CS(=O)(=O)N1CCN(c2ccc([N+](=O)[O-])cc2C(F)(F)F)CC1` the figure was 39.9 µg/mL (≈ 113 µM); with `CCC(CC)NC(=O)Cc1ccc(F)cc1`, more than 33.5 µg/mL; with `Cc1cc(C)cc(OCC(=O)Nc2cc(C)on2)c1`, 1.5 µg/mL (≈ 5.76 µM). Next, `COc1cccc(CN(C)C(=O)Cc2c[nH]c3ccccc23)c1`: more than 46.3 µg/mL; `Cn1nc(-c2ccc(Cl)cc2)cc1NC(=O)CCCC(=O)O`: more than 48.3 µg/mL; `CC(=O)c1cccc(NC(=S)N2CCc3ccccc32)c1`: 3.1 µg/mL (≈ 10.5 µM). In the case of `CC(Sc1cccc[n+]1[O-])c1ccccc1` (stereo not drawn), the kinetic solubility is more than 34.7 µg/mL.

`O=C(NCC(=O)N1CCOCC1)OCc1ccccc1`: the solubility (kinetic) is more than 41.7 µg/mL. Next, `CC(C)c1ccc(OCc2ccc(C(=O)N3CCCC3)o2)cc1`: 26.7 µg/mL (≈ 85.2 µM); `O=C(CSc1ncnc2ccccc12)NC1CCS(=O)(=O)C1` (stereo not drawn): more than 50.6 µg/mL; `CCOc1ccc(CNCCCSc2ncccn2)cc1`: more than 45.5 µg/mL. `Nc1ccccc1Nc1c(F)c(F)nc(F)c1Cl` had a kinetic solubility of 37.6 µg/mL (≈ 137 µM). `Cc1ccc(C2CCN(C(=S)Nc3cccc(Cl)c3)C2)cc1` (stereo not drawn) gave a solubility (kinetic) of less than 0.4 µg/mL. For the compound `COc1ccc(CNC(=O)CSc2nc3ccc(OC)cc3[nH]2)cc1`, the solubility (kinetic) is more than 53.6 µg/mL. With `CC(SCC(=O)Nc1ccccc1Br)c1nc2ccccc2c(=O)[nH]1` (stereo not drawn) the figure was 3.2 µg/mL (≈ 7.65 µM); with `O=C(NCC(c1ccc(F)cc1)N1CCOCC1)c1ccc(OCc2ccccc2)cc1` (stereo not drawn), 5.8 µg/mL (≈ 13.3 µM); with `O=C(Cn1cc(C(=O)C2CC2)c2ccccc21)Nc1ccc(F)cc1`, 0.7 µg/mL (≈ 2.08 µM). Next, `CCOc1ccc(OCCCCn2cnc3ccccc3c2=O)cc1`: 0.7 µg/mL (≈ 2.07 µM); `Cc1ccc2nc(COC(=O)c3ccc(Cl)nc3)cc(=O)n2c1`: 7.3 µg/mL (≈ 22.1 µM). With `C=CCNc1nc(NCc2ccccc2)c(C#N)c2c1CN(C)CC2` the figure was 3 µg/mL (≈ 9 µM); with `CCCN1C(=O)c2ccccc2NC1c1ccc(Cl)cc1` (stereo not drawn), 3.2 µg/mL (≈ 10.6 µM); with `CCN(C(=O)COC(=O)c1ccc(O)cc1)c1cccc2ccccc12`, 24.6 µg/mL (≈ 70.4 µM). In turn, `S=C(NCc1ccccc1)NCc1ccccn1` registered a solubility (kinetic) of more than 38.6 µg/mL. Next, `Nc1nc(Oc2ccc(F)cc2)c(Br)c(=O)[nH]1`: more than 45 µg/mL; `C=CCNC(=O)CN1CCC(c2nc3ccccc3[nH]2)CC1`: more than 44.8 µg/mL; `COc1ccc(N(CC(=O)NC2CCCCC2)S(=O)(=O)c2cccs2)cc1`: 1.2 µg/mL (≈ 2.94 µM). Turning to `O=C(CC(=O)c1ccccc1)Nc1ccc(Cl)cc1`, the kinetic solubility is 3.3 µg/mL (≈ 12.1 µM). Next, `O=C(NCCNC(=O)c1cc(Cl)ccc1Cl)c1ccco1`: 46.6 µg/mL (≈ 142 µM); `O=S(=O)(NC(=S)NC1CCCCC1)c1ccccc1`: 44 µg/mL (≈ 147 µM); `COc1ccccc1N(CC(=O)Nc1cc(S(=O)(=O)N(C)C)ccc1C)S(=O)(=O)c1cccs1`: 14.4 µg/mL (≈ 27.5 µM). Next, `CC(=O)Oc1ccc2nc(-c3ccc(Br)o3)oc(=O)c2c1`: 4.2 µg/mL (≈ 12 µM); `CC1(C)Cc2ccccc2-c2[nH]c(=S)[nH]c(=O)c21`: 30.1 µg/mL (≈ 117 µM); `O=C(Nc1nccs1)c1cncc(Br)c1`: 20.4 µg/mL (≈ 71.8 µM). With `O=c1c2ccc(Cl)cc2nc2n1CC/C2=C\c1cccc(O)c1` the figure was 2.9 µg/mL (≈ 8.93 µM); with `O=C(COC(=O)C1CCN(S(=O)(=O)c2cccs2)CC1)Nc1ccc(F)cc1Cl`, 17.7 µg/mL (≈ 38.4 µM); with `COc1ccc(C(=O)CC(=O)C(=O)Nc2ccc(Cl)cc2)cc1`, 5.5 µg/mL (≈ 16.6 µM).

Consider `CC(=O)Nc1sc(C)c(C)c1C(=O)OCC(=O)Nc1ccc(S(N)(=O)=O)cc1`, for which the solubility (kinetic) is 8.4 µg/mL (≈ 19.7 µM). With `Nc1c(C(=O)c2ccco2)oc2ccccc12` the figure was 25.8 µg/mL (≈ 114 µM); with `c1cncc(Nc2c3ccccc3nc3ccccc23)c1`, 2 µg/mL (≈ 7.37 µM). Next, `COc1ccc(CNCc2ccc(C)cc2)c(OC)c1.O=C(O)C(=O)O`: 40.5 µg/mL; `CN1CCN(c2ncc(CN3C(=O)c4ccccc4C3=O)s2)CC1`: more than 51.4 µg/mL; `COCCCNC(=O)C(=O)Nc1cc2c3c(c1)CCN3C(=O)CC2`: 49.4 µg/mL (≈ 149 µM). Next, `Cc1onc(-c2ccccc2)c1C(=O)Nc1sccc1C#N`: 23.5 µg/mL (≈ 76 µM); `CC/C(O)=C1\C(=O)CCCC1=NCCc1nc2ccccc2[nH]1`: more than 46.7 µg/mL; `Cc1cc(C=NCCO)c(C)n1-c1cc(Cl)ccc1Cl`: 29.2 µg/mL (≈ 93.8 µM). `COc1ccc(N2C(=O)CC(SCc3ccc(Cl)cc3)C2=O)cc1` (stereo not drawn): the solubility (kinetic) was found to be 0.9 µg/mL (≈ 2.49 µM).

As for `Cc1ccsc1C(=O)OCC(=O)Nc1ccc(Cl)cn1`, the solubility (kinetic) was 14.7 µg/mL (≈ 47.3 µM).

Turning to `O=C(COc1ccc(Cl)c2cccnc12)N1CCOCC1`, the kinetic solubility turned out to be 42.5 µg/mL (≈ 139 µM). Next, `Cc1nc(SCCO)c([N+](=O)[O-])[nH]1`: more than 30.5 µg/mL; `CC(C)N1C(=O)c2ccccc2C1C(=O)NCCc1ccccc1` (stereo not drawn): 48 µg/mL (≈ 149 µM). Next, `O=C(CNC(=O)c1cc(Cl)cc([N+](=O)[O-])c1)NC1CC1`: more than 44.7 µg/mL. With `COc1ccccc1-n1cc(-c2ccc(C)cc2)[nH]c1=S` the figure was 1 µg/mL (≈ 3.37 µM); with `Cc1nc(NC(=S)NC(=O)c2ccccc2)sc1C`, 0.3 µg/mL (≈ 1.03 µM). Compound `Cc1ccc2nc(Br)c3c(c2c1)OC(CBr)C3` (stereo not drawn) returned a solubility (kinetic) of 9.7 µg/mL (≈ 27.2 µM).

In turn, `COc1ccc2[nH]c(C(=O)Nc3cccc(C)n3)cc2c1` showed a kinetic solubility of 1.9 µg/mL (≈ 6.75 µM). Next, `Cc1ccsc1C(=O)NCc1ccc(Cl)cc1`: 1.8 µg/mL (≈ 6.77 µM). With `Br.Cc1ccnc(Nc2nc(-c3sc(C)nc3C)cs2)c1` the figure was 3.6 µg/mL; with `CC(=O)NS(=O)(=O)c1ccc(NC(=S)NC(=O)C2CCC2)cc1`, more than 53.3 µg/mL. With `CN(C)CCCOC(=O)c1sc2ccccc2c1Cl.Cl` the figure was more than 50.1 µg/mL; with `Cc1cc(C)cc(C(=O)NCc2ccc3c(c2)OCO3)c1`, 5.8 µg/mL (≈ 20.5 µM); with `COc1ccc(C2N(c3ccccc3)C(=O)C2(F)F)cc1OC` (stereo not drawn), 36.2 µg/mL (≈ 113 µM). `O=c1c2ccccc2nc(CNCC2CCCO2)n1-c1ccc(F)cc1` (stereo not drawn) displayed a solubility (kinetic) of 44.9 µg/mL (≈ 127 µM). Next, `Cc1ccccc1Nc1c(-c2cccnc2)nc2ccccn12`: 17.6 µg/mL (≈ 58.6 µM); `CSc1ccccc1C(=O)N1CCc2ccccc2C1`: more than 42.5 µg/mL; `C[C@@H](C(=O)Nc1ccc(OC(F)F)c(Cl)c1)N1C(=O)C2CC=CCC2C1=O` (stereo partly drawn): more than 59.8 µg/mL. Next, `N#Cc1ccccc1NC(=O)CN1CCN(Cc2ccccc2)CC1`: more than 50.2 µg/mL. Next, `COc1ccccc1C1C([N+](=O)[O-])=C(N)Oc2c1c(=O)oc1ccccc21` (stereo not drawn): 2.2 µg/mL (≈ 6.01 µM); `CN1C(=O)NC(c2ccc(Cl)cc2)C2=C1CC(C)(C)CC2=O` (stereo not drawn): more than 47.8 µg/mL.

Regarding `Cc1cccc(N(C)S(=O)(=O)c2ccc3c(c2)NC(=O)CC(=O)N3)c1`, the solubility (kinetic) was more than 53.9 µg/mL. Next, `CC(CN1CCCCC1)NC(=O)c1cccs1` (stereo not drawn): more than 37.9 µg/mL; `CCCCc1nnc(SCC(=O)Nc2nccs2)n1CC`: more than 48.8 µg/mL. Next, `O=C(COC(=O)CNC(=O)c1ccccc1)NCCCc1ccccc1`: 52.3 µg/mL (≈ 148 µM). With `CCC(C)NC(=O)c1ccc2nc(Cc3ccc(OC)cc3)oc2c1` (stereo not drawn) the figure was 4.7 µg/mL (≈ 13.9 µM); with `CC1CCCCC1NC1=NCCCS1` (stereo not drawn), more than 31.9 µg/mL; with `O=C(Nc1cccc(Cl)c1)c1ccc2ncsc2c1`, 21.2 µg/mL (≈ 73.4 µM).

The compound `CCOC(=O)C1=C(C)NC(C)=C(C(=O)OCC)C1C(=O)OCC(=O)NCc1ccccc1OC` registered a kinetic solubility of more than 71.2 µg/mL. Compound `O=C(Cc1ccccc1[N+](=O)[O-])NCc1ccco1` came in with a kinetic solubility of more than 39 µg/mL. Next, `CC(C)CCCC(C)CCOC(=O)CN1CCCC1` (stereo not drawn): 1.9 µg/mL (≈ 7.05 µM); `CCOC(=O)/C(C#N)=C/Nc1cc(F)ccc1C`: 3.2 µg/mL (≈ 12.9 µM); `Cc1ccc(Cl)cc1NC(=O)C1C2CCC(O2)C1C(=O)O` (stereo not drawn): more than 46.5 µg/mL. With `O=C(CO/N=C/c1ccc(OC(F)F)cc1)NC1CCCC1` the figure was more than 46.8 µg/mL; with `CN(C)CCSc1nc2cc(S(=O)(=O)N3CCCCC3)ccc2o1`, 41.7 µg/mL (≈ 113 µM). With `CCN(CC)CCOC(=O)c1ccc(Cl)cc1Cl.Cl` the figure was more than 49 µg/mL; with `Cn1c(SCC(=O)NC2CC2)nnc1-c1ccccc1`, more than 43.3 µg/mL.

For `CCN1CCN(c2cc(=O)n3ccccc3n2)CC1`, the solubility (kinetic) is 32 µg/mL (≈ 124 µM). In turn, `CSc1ncc(C(=O)NCCCc2ccccc2)c(C)n1` came in with a solubility (kinetic) of 43 µg/mL (≈ 143 µM). With `CN1CCN(C(=S)NC(=O)c2cccc([N+](=O)[O-])c2)CC1` the figure was more than 46.3 µg/mL; with `O=C(NCCCNC(=O)c1cnccn1)c1ccc(Cl)c(Cl)c1`, 41.4 µg/mL (≈ 117 µM). In the case of `Cc1cc(C)c(S(=O)(=O)N2CCCc3ccccc32)c(C)c1`, the kinetic solubility was 1.8 µg/mL (≈ 5.71 µM). Take `CCOC(=O)C1CCN(C(=O)c2cc3c(C)cc(C)cc3[nH]2)CC1`: the solubility (kinetic) is 7.7 µg/mL (≈ 23.4 µM).
